From ChEMBL document CHEMBL1909046, “DrugMatrix in vitro pharmacology data”
Where a SMILES comes first, the peptide text is derived from it. Bridges are numbered along the chain shown (N, C = ends). [ ]: non-standard residue; d: D form. The star is where a group is joined. Threoninol(2S,3R) = C[C@@H](O)[C@H](CO)N*

Experiments:
[1] = DRUGMATRIX: Purinergic P2X radioligand binding (ligand: [3H] alpha, beta-Methylene-ATP); assay type: cell membranes, Oryctolagus cuniculus, New Zealand albino, Urinary bladder, Membrane; conditions: Not Active = under 50% inhibition at 10 µM
[2] = biological target: Protein kinase C alpha type (Homo sapiens, UniProt P17252); assay type: cell-based; conditions: sf9;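 further: inhibition of PKCalpha kinase activity measured in an enzyme assay with histone as the phosphorylation substrate; in other assays of this panel Not Active means under 50% inhibition at 10 µM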
Estrogen receptor beta = Estrogen receptor beta (Homo sapiens, UniProt Q92731); conditions: sf9; further: in other assays of this panel Not Active means under 50% inhibition at 10 µM
Vasopressin V1a receptor = Vasopressin V1a receptor (Homo sapiens, UniProt P37288); assay type: cell membranes, Membrane; conditions: hek293; further: in other assays of this panel Not Active means under 50% inhibition at 10 µM
[3] = biological target: T1, Neuropeptide Y receptor type 2 (Homo sapiens, UniProt P49146); assay type: cell membranes, Membrane; conditions: kan-ts; further: in other assays of this panel Not Active means under 50% inhibition at 10 µM
T1 sequence (P49146 whole entry): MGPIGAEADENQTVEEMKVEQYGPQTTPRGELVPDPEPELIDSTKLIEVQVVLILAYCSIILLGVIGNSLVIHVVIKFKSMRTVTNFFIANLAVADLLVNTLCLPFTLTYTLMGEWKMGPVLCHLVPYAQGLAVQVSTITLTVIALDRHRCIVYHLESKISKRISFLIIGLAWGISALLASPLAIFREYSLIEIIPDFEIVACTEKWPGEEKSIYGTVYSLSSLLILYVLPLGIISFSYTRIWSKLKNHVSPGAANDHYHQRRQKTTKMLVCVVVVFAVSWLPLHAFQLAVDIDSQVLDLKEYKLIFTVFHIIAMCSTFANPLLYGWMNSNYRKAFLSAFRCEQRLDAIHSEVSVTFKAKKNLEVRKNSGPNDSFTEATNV

[4] = DRUGMATRIX: Calcium Channel Type L, Dihydropyridine radioligand binding (ligand: [3H] Nitrendipine); assay type: cell membranes, Rattus norvegicus, Wistar, Cerebral cortex, Membrane; conditions: Not Active = under 50% inhibition at 10 µM
Progesterone receptor = biological target: T2, Progesterone receptor (Bos taurus, UniProt Q690N0); test: DRUGMATRIX: Progesterone radioligand binding (ligand: [3H] R-5020); assay type: tissue-based, Uterus; conditions: Not Active = under 50% inhibition at 10 µM
T2 sequence (Q690N0 whole entry): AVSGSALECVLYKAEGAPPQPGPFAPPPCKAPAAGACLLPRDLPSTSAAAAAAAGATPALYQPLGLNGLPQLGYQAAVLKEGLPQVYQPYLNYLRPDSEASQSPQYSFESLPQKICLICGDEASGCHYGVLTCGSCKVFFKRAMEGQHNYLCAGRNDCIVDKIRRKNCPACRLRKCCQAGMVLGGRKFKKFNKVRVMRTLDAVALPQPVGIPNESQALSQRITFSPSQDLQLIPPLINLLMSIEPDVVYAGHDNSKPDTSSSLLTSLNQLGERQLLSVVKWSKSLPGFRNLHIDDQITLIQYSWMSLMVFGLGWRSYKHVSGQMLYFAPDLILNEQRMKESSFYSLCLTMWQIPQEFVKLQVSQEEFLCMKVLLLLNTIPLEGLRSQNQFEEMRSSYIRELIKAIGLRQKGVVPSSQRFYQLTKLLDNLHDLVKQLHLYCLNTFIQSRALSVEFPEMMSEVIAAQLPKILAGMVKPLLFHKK

Vasopressin V1a receptor, sequence (P37288 whole entry): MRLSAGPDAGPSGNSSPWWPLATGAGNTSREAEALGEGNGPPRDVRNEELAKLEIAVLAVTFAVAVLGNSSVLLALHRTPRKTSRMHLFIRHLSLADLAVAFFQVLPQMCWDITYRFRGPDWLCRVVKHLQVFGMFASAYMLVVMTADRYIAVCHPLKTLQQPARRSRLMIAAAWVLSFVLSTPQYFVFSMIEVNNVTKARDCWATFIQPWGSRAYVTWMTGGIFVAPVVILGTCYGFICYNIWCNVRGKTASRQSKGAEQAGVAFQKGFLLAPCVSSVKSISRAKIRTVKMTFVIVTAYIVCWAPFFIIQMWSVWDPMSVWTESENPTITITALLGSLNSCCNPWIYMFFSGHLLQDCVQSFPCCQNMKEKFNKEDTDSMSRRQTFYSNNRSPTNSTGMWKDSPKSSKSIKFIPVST
Estrogen receptor beta, sequence (Q92731 whole entry): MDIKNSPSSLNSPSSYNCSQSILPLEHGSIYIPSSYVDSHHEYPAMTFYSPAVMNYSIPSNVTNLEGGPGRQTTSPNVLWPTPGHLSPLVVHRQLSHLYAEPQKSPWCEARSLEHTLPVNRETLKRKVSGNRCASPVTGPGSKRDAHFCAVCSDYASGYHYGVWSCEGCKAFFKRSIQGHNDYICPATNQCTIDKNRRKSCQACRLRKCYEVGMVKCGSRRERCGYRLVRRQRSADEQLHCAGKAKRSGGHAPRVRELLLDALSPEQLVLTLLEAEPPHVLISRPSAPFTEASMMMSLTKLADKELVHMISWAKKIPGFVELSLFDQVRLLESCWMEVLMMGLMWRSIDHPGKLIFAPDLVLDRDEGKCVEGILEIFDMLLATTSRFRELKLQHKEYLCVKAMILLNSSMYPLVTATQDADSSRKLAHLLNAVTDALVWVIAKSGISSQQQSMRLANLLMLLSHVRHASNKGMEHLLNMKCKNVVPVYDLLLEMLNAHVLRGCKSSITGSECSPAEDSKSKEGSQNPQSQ

COc1ccccc1C(=O)N1CCC(Cc2ccccc2)CC1
Not Active: IC50 [1] | Ki [1] | IC50 [2] | IC50 (Estrogen receptor beta) | IC50 (Vasopressin V1a receptor) | IC50 [3] | IC50 [4] | Ki [4] | IC50 (Progesterone receptor)

Cc1ccccc1C(=O)N1CCC(Cc2ccccc2)CC1
Not Active: IC50 [1] | Ki [1] | IC50 [2] | IC50 (Estrogen receptor beta) | IC50 (Vasopressin V1a receptor) | IC50 [3] | IC50 [4] | Ki [4] | IC50 (Progesterone receptor)

O=C1CC[C@H](N2C(=O)c3ccccc3C2=O)C(=O)N1
Not Active: IC50 [1] | Ki [1] | IC50 [2] | IC50 (Estrogen receptor beta) | IC50 (Vasopressin V1a receptor) | IC50 [3] | IC50 [4] | Ki [4] | IC50 (Progesterone receptor)

N=C(Nc1ccccc1)Nc1ccccc1
Not Active: IC50 [1] | Ki [1] | IC50 [2] | IC50 (Estrogen receptor beta) | IC50 (Vasopressin V1a receptor) | IC50 [3] | IC50 [4] | Ki [4] | IC50 (Progesterone receptor)

C[C@@H](O)[C@H](CO)NC(=O)[C@@H]1CSSC[C@H](NC(=O)[C@H](N)Cc2ccccc2)C(=O)N[C@@H](Cc2ccccc2)C(=O)N[C@H](Cc2c[nH]c3ccccc23)C(=O)N[C@@H](CCCCN)C(=O)N[C@@H]([C@@H](C)O)C(=O)N1 (H-[dF]CF[dW]KTC-{Threoninol(2S,3R)}; disulfide 2-7)
Not Active: IC50 [1] | Ki [1] | IC50 [2] | IC50 (Estrogen receptor beta) | IC50 (Vasopressin V1a receptor) | IC50 [3] | IC50 [4] | Ki [4] | IC50 (Progesterone receptor)

S=C=Nc1cccc2ccccc12 [1-NAPHTHYLISOTHIOCYANATE]
Not Active: IC50 [1] | Ki [1] | IC50 [2] | IC50 (Estrogen receptor beta) | IC50 (Vasopressin V1a receptor) | IC50 [3] | IC50 [4] | Ki [4] | IC50 (Progesterone receptor)

C[C@](O)(CS(=O)(=O)c1ccc(F)cc1)C(=O)Nc1ccc(C#N)c(C(F)(F)F)c1 [(R)-BICALUTAMIDE]
Not Active: IC50 [1] | Ki [1] | IC50 [2] | IC50 (Estrogen receptor beta) | IC50 (Vasopressin V1a receptor) | IC50 [3] | IC50 [4] | Ki [4] | IC50 (Progesterone receptor)

CCCC(=O)Nc1ccc(OCC(O)CNC(C)C)c(C(C)=O)c1 (configuration not stated) [ACEBUTOLOL]
Not Active: IC50 [1] | Ki [1] | IC50 [2] | IC50 (Estrogen receptor beta) | IC50 (Vasopressin V1a receptor) | IC50 [3] | IC50 [4] | Ki [4] | IC50 (Progesterone receptor)

CC(=O)Nc1ccc(O)cc1 [ACETAMINOPHEN]
Not Active: IC50 [1] | Ki [1] | IC50 [2] | IC50 (Estrogen receptor beta) | IC50 (Vasopressin V1a receptor) | IC50 [3] | IC50 [4] | Ki [4] | IC50 (Progesterone receptor)

COc1cc2c(c3oc(=O)c4c(c13)CCC4=O)[C@@H]1C=CO[C@@H]1O2 [AFLATOXIN]
Not Active: IC50 [1] | Ki [1] | IC50 [2] | Ki [2] | IC50 (Estrogen receptor beta) | Ki (Estrogen receptor beta) | IC50 (Vasopressin V1a receptor) | Ki (Vasopressin V1a receptor) | IC50 [3] | Ki [3] | IC50 [4] | Ki [4] | IC50 (Progesterone receptor) | Ki (Progesterone receptor)

N=C(N)NC(=O)c1nc(Cl)c(N)nc1N [AMILORIDE]
Not Active: IC50 [1] | Ki [1] | IC50 [2] | IC50 (Estrogen receptor beta) | IC50 (Vasopressin V1a receptor) | IC50 [3] | IC50 [4] | Ki [4] | IC50 (Progesterone receptor)

Cc1cc(=O)n(-c2ccccc2)n1C [ANTIPYRINE]
Not Active: IC50 [1] | Ki [1] | IC50 [2] | IC50 (Estrogen receptor beta) | IC50 (Vasopressin V1a receptor) | IC50 [3] | IC50 [4] | Ki [4] | IC50 (Progesterone receptor)

CCOC(=O)[C@H](CCc1ccccc1)N[C@H]1CCc2ccccc2N(CC(=O)O)C1=O [BENAZEPRIL]
Not Active: IC50 [1] | Ki [1] | IC50 [2] | IC50 (Estrogen receptor beta) | IC50 (Vasopressin V1a receptor) | IC50 [3] | IC50 [4] | Ki [4] | IC50 (Progesterone receptor)

Nc1c(CC(=O)O)cccc1C(=O)c1ccc(Br)cc1 [BROMFENAC]
Not Active: IC50 [1] | Ki [1] | IC50 [2] | IC50 (Estrogen receptor beta) | IC50 (Vasopressin V1a receptor) | IC50 [3] | IC50 [4] | Ki [4] | IC50 (Progesterone receptor)

CCCCN1CCCCC1C(=O)Nc1c(C)cccc1C.Cl (configuration not stated) [BUPIVACAINE HYDROCHLORIDE]
Not Active: IC50 [1] | Ki [1] | IC50 [2] | IC50 (Estrogen receptor beta) | IC50 (Vasopressin V1a receptor) | IC50 [3] | IC50 [4] | Ki [4] | IC50 (Progesterone receptor)

C=C1CC[C@H](O)C/C1=C/C=C1\CCC[C@]2(C)[C@@H]([C@H](C)CCCC(C)C)CC[C@@H]12 [CHOLECALCIFEROL]
Not Active: IC50 [1] | Ki [1] | IC50 [2] | IC50 (Estrogen receptor beta) | IC50 (Vasopressin V1a receptor) | IC50 [3] | IC50 [4] | Ki [4]

CCCCOc1ccc(OCCCN2CCOCC2)cc1 [PRAMOXINE]
Not Active: IC50 [1] | Ki [1] | IC50 [2] | IC50 (Estrogen receptor beta) | IC50 (Vasopressin V1a receptor) | IC50 [3] | IC50 [4] | Ki [4]

CCCC(CCC)C(=O)O [VALPROIC ACID]
Not Active: IC50 [1] | Ki [1] | IC50 [2] | IC50 (Vasopressin V1a receptor) | IC50 [3] | IC50 [4] | Ki [4] | IC50 (Progesterone receptor)

CCC1=C[C@@H]2CN(C1)Cc1c([nH]c3ccccc13)[C@@](C(=O)OC)(c1cc3c(cc1OC)N(C)[C@H]1[C@@](O)(C(=O)OC)[C@H](OC(C)=O)[C@]4(CC)C=CCN5CC[C@]31[C@@H]54)C2 [VINORELBINE]
Not Active: IC50 [1] | Ki [1] | IC50 [2] | IC50 (Vasopressin V1a receptor) | IC50 [3] | IC50 [4] | Ki [4] | IC50 (Progesterone receptor)
